# In patent publication US20240360148A1 (SUVALENT THERAPEUTICS, INC., priority 2021, published 2024):
# Tests used:
# SAE1 = SAE1 (Homo sapiens (Human), UniProt Q9UBE0+Q9UBT2); assay: SAE High Throughput Biochemical Assay (HTRF), 15 min preincubation; conditions: read-out: 15 min preincubation HTRF IC50 (μM) Ave, SAE1 12.5 nM, ATP 100 μM
# Summary of the method: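 SAE1 (12.5 nM) was preincubated with compound for 15 min at RT in HEPES pH 7.5, 0.1% BSA, 10 mM MgCl2. The reaction was then started with SUMO-GST and UBC9-His (40 nM each) plus 100 μM ATP for 45 min. After KF stop, HTRF (anti-GST-XL665/anti-His-EuK) was read at 2 h and overnight; some compounds were tested singly at 25 micromolar as percent of control.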
# [1] = test system: sumoylation levels (SUMO 2/3 conjugates) in HCT-116 cells; assay: HCT-116 4 Hour Cell Assay (Western, SUMO 2/3 conjugates); assay type: cell-based; conditions: Homo sapiens, HCT-116, 4 h, 4 h treatment, Anti-Sumo 2-3 immunoblot, read-out: HCT-116 Western 4 h IC50 (μM) Ave
# Summary of the method: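 Cells treated 4 h with 11 three-fold dilutions from 25 μM; lysed in RIPA with NEM and Benzonase. Non-reducing SDS-PAGE immunoblot with anti-SUMO 2/3 mAb, IRDye fluorescent detection; conjugate signal normalized to total protein stain, IC50 from quantified bands.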
# Sequence of SAE1 (Q9UBE0 whole entry): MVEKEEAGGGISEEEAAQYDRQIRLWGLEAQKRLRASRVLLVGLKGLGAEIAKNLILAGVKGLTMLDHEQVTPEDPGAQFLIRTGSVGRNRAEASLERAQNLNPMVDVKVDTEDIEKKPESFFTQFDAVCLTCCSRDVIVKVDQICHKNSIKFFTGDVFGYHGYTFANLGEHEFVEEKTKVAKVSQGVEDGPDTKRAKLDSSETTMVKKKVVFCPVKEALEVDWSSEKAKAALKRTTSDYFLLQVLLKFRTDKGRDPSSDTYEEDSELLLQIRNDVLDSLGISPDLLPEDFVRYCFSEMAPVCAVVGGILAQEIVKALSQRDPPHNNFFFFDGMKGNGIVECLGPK
# Sequence of SAE1 (Q9UBT2 whole entry): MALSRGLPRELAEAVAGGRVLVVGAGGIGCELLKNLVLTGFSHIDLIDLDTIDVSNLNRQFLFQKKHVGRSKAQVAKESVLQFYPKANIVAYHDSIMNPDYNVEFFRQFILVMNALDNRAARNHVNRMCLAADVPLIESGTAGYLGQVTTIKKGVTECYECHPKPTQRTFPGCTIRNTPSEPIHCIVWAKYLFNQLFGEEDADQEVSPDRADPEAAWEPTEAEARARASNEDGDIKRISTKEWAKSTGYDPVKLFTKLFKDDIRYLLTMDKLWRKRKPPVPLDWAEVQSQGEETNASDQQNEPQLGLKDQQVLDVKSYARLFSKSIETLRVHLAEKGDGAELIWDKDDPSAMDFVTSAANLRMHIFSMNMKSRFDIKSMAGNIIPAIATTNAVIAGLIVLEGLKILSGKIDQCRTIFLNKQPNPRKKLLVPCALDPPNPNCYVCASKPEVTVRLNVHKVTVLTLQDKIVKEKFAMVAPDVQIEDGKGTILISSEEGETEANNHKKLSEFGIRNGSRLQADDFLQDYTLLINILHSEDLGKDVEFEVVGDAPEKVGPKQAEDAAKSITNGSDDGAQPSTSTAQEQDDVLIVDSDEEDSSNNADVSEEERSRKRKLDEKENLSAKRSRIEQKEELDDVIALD
Structure (SMILES),IC50 [1] [µM],IC50 (SAE1) [µM]
"CCn1cc(-c2ccccc2[C@@H]2CN(C(=O)C#CC3(N)CCCC3)Cc3sc(C#N)cc32)c(C(F)(F)F)n1 [Example 138, (S)-6-(3-(1-Aminocyclopentyl)propioloyl)-4-(2-(1-ethyl-3-(trifluoromethyl)-1 H-pyrazol-4-yl)phenyl)-4,5,6,7-tetrahydrothieno[2,3-c]pyridine-2-carbonitrile]",2.69,0.5
"CCn1cc(-c2ccccc2[C@@H]2CN(C(=O)C#CC3CCCN3)Cc3sc(C#N)cc32)c(C(F)(F)F)n1 (stereo partly drawn) [Example 139, (4S)-4-(2-(1-Ethyl-3-(trifluoromethyl)-1 H pyrazol-4-yl)phenyl)-6-(3-(pyrrolidin-2-yl)propioloyl)-4,5,6,7-tetrahydrothieno[2,3-c]pyridine-2-carbonitrile]",0.97,0.07
"CCn1cc(-c2ccccc2[C@@H]2CN(C(=O)C#C[C@]3(C)CCCN3)Cc3sc(C#N)cc32)c(C(F)(F)F)n1 [Example 140, (S)-4-(2-(1-Ethyl-3-(trifluoromethyl)-1 H-pyrazol-4-yl)phenyl)-6-(3-((S)-2-methylpyrrolidin-2-yl)propioloyl)-4,5,6,7-tetrahydrothieno[2,3-c]pyridine-2-carbonitrile]",2.36,0.12
"CCn1cc(-c2ccccc2[C@@H]2CN(C(=O)C#C[C@@]3(C)CCCN3)Cc3sc(C#N)cc32)c(C(F)(F)F)n1 [Example 141, (S)-4-(2-(1-Ethyl-3-(trifluoromethyl)-1 H pyrazol-4-yl)phenyl)-6-(3-((R)-2-methylpyrrolidin-2-yl)propioloyl)-4,5,6,7-tetrahydrothieno[2,3-c]pyridine-2-carbonitrile]",4.88,0.35
"CCn1cc(-c2ccccc2[C@@H]2CN(C(=O)C#CC3CCNC3)Cc3sc(C#N)cc32)c(C(F)(F)F)n1 (stereo partly drawn) [Example 146, (4S)-4-(2-(1-Ethyl-3-(trifluoromethyl)-1 H pyrazol-4-yl)phenyl)-6-(3-(pyrrolidin-3-yl)propioloyl)-4,5,6,7-tetrahydrothieno[2,3-c]pyridine-2-carbonitrile]",0.501,1.92
"CN(C)CC#CC(=O)N1Cc2sc(C#N)cc2[C@H](c2ccccc2-c2c[nH]nc2C(F)(F)F)C1 [Example 151, (S)-6-(4-(Dimethylamino)but-2-ynoyl)-4-(2-(3-(trifluoromethyl)-1 H-pyrazol-4-yl)phenyl)-4,5,6,7-tetrahydrothieno[2,3-c]pyridine-2-carbonitrile]",0.587,0.18
"C#CCn1cc(-c2ccccc2[C@@H]2CN(C(=O)/C=C/CN(C)C)Cc3sc(C#N)cc32)c(C(F)(F)F)n1 [Example 155, (S, E)-6-(4-(Dimethylamino)but-2-enoyl)-4-(2-(1-(prop-2-yn-1-yl)-3-(trifluoromethyl)-1 H-pyrazol-4-yl)phenyl)-4,5,6,7-tetrahydrothieno[2,3-c]pyridine-2-carbonitrile]",0.321,3.52
"CCn1cc(-c2ccc(F)cc2C2CN(C(=O)/C=C/CN(C)C)Cc3sc(C#N)cc32)c(C(F)(F)F)n1 (centres unmarked) [Example 180, (E)-6-(4-(Dimethylamino)but-2-enoyl)-4-(2-(1-ethyl-3-(trifluoromethyl)-1 H-pyrazol-4-yl)-5-fluorophenyl)-4,5,6,7-tetrahydrothieno[2,3-c]pyridine-2-carbonitrile]",1.15,5.29
"CCn1cc(-c2c(F)cc(F)cc2C2CN(C(=O)/C=C/CN(C)C)Cc3sc(C#N)cc32)c(C(F)(F)F)n1 (centres unmarked) [Example 183, (E)-6-(4-(Dimethylamino)but-2-enoyl)-4-(2-(1-ethyl-3-(trifluoromethyl)-1 H-pyrazol-4-yl)-3,5-difluorophenyl)-4,5,6,7-tetrahydrothieno[2,3-c]pyridine-2-carbonitrile]",0.321,2.16
"CCn1cc(-c2cc(NS(C)(=O)=O)ccc2C2CN(C(=O)/C=C/CN(C)C)Cc3sc(C#N)cc32)c(C(F)(F)F)n1 (centres unmarked) [Example 193, (E)-N-(4-(2-Cyano-6-(4-(dimethylamino)but-2-enoyl)-4,5,6,7-tetrahydrothieno[2,3-c]pyridin-4-yl)-3-(1-ethyl-3-(trifluoromethyl)-1 H-pyrazol-4-yl)phenyl)methanesulfonamide]",8.85,9.08
"CCn1cc(-c2c(C3CN(C(=O)/C=C/CN(C)C)Cc4sc(C#N)cc43)csc2C)c(C(F)(F)F)n1 (centres unmarked) [Example 199, (E)-6-(4-(Dimethylamino)but-2-enoyl)-4-(4-(1-ethyl-3-(trifluoromethyl)-1 H-pyrazol-4-yl)-5-methylthiophen-3-yl)-4,5,6,7-tetrahydrothieno[2,3-c]pyridine-2-carbonitrile]",1.26,2.87
"CCn1cc(-c2c(Cl)cccc2C2CN(C(=O)/C=C/CN(C)C)Cc3sc(C#N)cc32)c(C(F)(F)F)n1 (centres unmarked) [Example 201, (E)-4-(3-Chloro-2-(1-ethyl-3-(trifluoromethyl)-1 H-pyrazol-4-yl)phenyl)-6-(4-(dimethylamino)but-2-enoyl)-4,5,6,7-tetrahydrothieno[2,3-c]pyridine-2-carbonitrile]",1.46,1.56
"CCn1cc(-c2cc(O)ccc2C2CN(C(=O)/C=C/CN(C)C)Cc3sc(C#N)cc32)c(C(F)(F)F)n1 (centres unmarked) [Example 203, (E)-6-(4-(Dimethylamino)but-2-enoyl)-4-(2-(1-ethyl-3-(trifluoromethyl)-1 H-pyrazol-4-yl)-4-hydroxyphenyl)-4,5,6,7-tetrahydrothieno[2,3-c]pyridine-2-carbonitrile]",0.767,4.75

# Further lines, with some results ahead:
IC50 [1] [µM],Structure (SMILES),IC50 (SAE1) [µM]
0.792,"CCn1cc(-c2ccccc2[C@@H]2CN(C(=O)C#CCOC)Cc3sc(C#N)cc32)c(C(F)(F)F)n1 [Example 144, (S)-4-(2-(1-Ethyl-3-(trifluoromethyl)-1 H pyrazol-4-yl)phenyl)-6-(4-methoxybut-2-ynoyl)-4,5,6,7-tetrahydrothieno[2,3-c]pyridine-2-carbonitrile]",0.54
3.47,"CCn1cc(-c2ccccc2[C@@H]2CN(C(=O)C#CC3CNC3)Cc3sc(C#N)cc32)c(C(F)(F)F)n1 [Example 147, (S)-6-(3-(Azetidin-3-yl)propioloyl)-4-(2-(1-ethyl-3-(trifluoromethyl)-1 H pyrazol-4-yl)phenyl)-4,5,6,7-tetrahydrothieno[2,3-c]pyridine-2-carbonitrile]",0.62
0.349,"CN(C)C/C=C/C(=O)N1Cc2sc(C#N)cc2[C@H](c2ccccc2-c2cn(-c3c(F)cncc3Cl)nc2C(F)(F)F)C1 [Example 156, (S,E)-4-(2-(1-(3-Chloro-5-fluoropyridin-4-yl)-3-(trifluoromethyl)-1H pyrazol-4-yl)phenyl)-6-(4-(dimethylamino)but-2-enoyl)-4,5,6,7-tetrahydrothieno[2,3-c]pyridine-2-carbonitrile]",2.91
0.128,"CN(C)C/C=C/C(=O)N1Cc2sc(C#N)cc2[C@H](c2ccccc2-c2cn(-c3c(F)cncc3F)nc2C(F)(F)F)C1 [Example 159, (S,E)-4-(2-(1-(3,5-Difluoropyridin-4-yl)-3-(trifluoromethyl)-1H pyrazol-4-yl)phenyl)-6-(4-(dimethylamino)but-2-enoyl)-4,5,6,7-tetrahydrothieno[2,3-c]pyridine-2-carbonitrile]",4.52
1.06,"CC(C#N)n1cc(-c2ccccc2[C@@H]2CN(C(=O)/C=C/CN(C)C)Cc3sc(C#N)cc32)c(C(F)(F)F)n1 (stereo partly drawn) [Example 165, (4S)-4-(2-(1-(1-Cyanoethyl)-3-(trifluoromethyl)-1H-pyrazol-4-yl)phenyl)-6-((E)-4-(dimethylamino)but-2-enoyl)-4,5,6,7-tetrahydrothieno[2,3-c]pyridine-2-carbonitrile]",3.42
0.878,"CCn1cc(C2=C(C3CN(C(=O)/C=C/CN(C)C)Cc4sc(C#N)cc43)CCCC2)c(C(F)(F)F)n1 (centres unmarked) [Example 181, (E)-6-(4-(Dimethylamino)but-2-enoyl)-4-(2-(1-ethyl-3-(trifluoromethyl)-1 H-pyrazol-4-yl)cyclohex-1-en-1-yl)-4,5,6,7-tetrahydrothieno[2,3-c]pyridine-2-carbonitrile]",3.16
2.13,"CCn1cc(-c2c(Cl)cc(F)cc2C2CN(C(=O)/C=C/CN(C)C)Cc3sc(C#N)cc32)c(C(F)(F)F)n1 (centres unmarked) [Example 186, (E)-4-(3-Chloro-2-(1-ethyl-3-(trifluoromethyl)-1 H-pyrazol-4-yl)-5-fluorophenyl)-6-(4-(dimethylamino)but-2-enoyl)-4,5,6,7-tetrahydrothieno[2,3-c]pyridine-2-carbonitrile]",6.37
0.46,"CCn1cc(-c2c(C3CN(C(=O)/C=C/CN(C)C)Cc4sc(C#N)cc43)ccc(O)c2F)c(C(F)(F)F)n1 (centres unmarked) [Example 189, (E)-6-(4-(Dimethylamino)but-2-enoyl)-4-(2-(1-ethyl-3-(trifluoromethyl)-1 H-pyrazol-4-yl)-3-fluoro-4-hydroxyphenyl)-4,5,6,7-tetrahydrothieno[2,3-c]pyridine-2-carbonitrile]",1.67
0.891,"CCn1cc(-c2c(C)cccc2C2CN(C(=O)/C=C/CN(C)C)Cc3sc(C#N)cc32)c(C(F)(F)F)n1 (centres unmarked) [Example 200, (E)-6-(4-(Dimethylamino)but-2-enoyl)-4-(2-(1-ethyl-3-(trifluoromethyl)-1 H-pyrazol-4-yl)-3-methylphenyl)-4,5,6,7-tetrahydrothieno[2,3-c]pyridine-2-carbonitrile]",2.28
